Laboratory results: patent US6541463B1, “Inhibitors of type 5 and type 3 17β-hydroxysteroid dehydrogenase and methods for their use” (Endorecherche, Inc., priority 1998, dated 2003)

How the values were obtained:
[1] = target: T1, human type 1 17β-hydroxysteroid dehydrogenase (Homo sapiens, UniProt P14061); assay: Enzymatic assay for type 1 17β-HSD; assay type: biochemical; conditions: for Inhibition Type 1 17B-HSD Activity [% Inh. at 3 · 10^−6 M] / inhibition at 3 µM: value in square brackets, 3 · 10^−6 M; for inhibition at 3 µM: read-out: Inhibition Type 1 17B-HSD Activity [% Inh. at 3 · 10^−6 M]; for IC50: Table 4′, read-out: Inhibition Type 1 17β-HSD Activity IC50
T1 construct: expressed in transfected cells; host or cells: 293 cells, transient transfection; 100 000×g supernatant (cytosol)
T1 sequence (P14061 1-328): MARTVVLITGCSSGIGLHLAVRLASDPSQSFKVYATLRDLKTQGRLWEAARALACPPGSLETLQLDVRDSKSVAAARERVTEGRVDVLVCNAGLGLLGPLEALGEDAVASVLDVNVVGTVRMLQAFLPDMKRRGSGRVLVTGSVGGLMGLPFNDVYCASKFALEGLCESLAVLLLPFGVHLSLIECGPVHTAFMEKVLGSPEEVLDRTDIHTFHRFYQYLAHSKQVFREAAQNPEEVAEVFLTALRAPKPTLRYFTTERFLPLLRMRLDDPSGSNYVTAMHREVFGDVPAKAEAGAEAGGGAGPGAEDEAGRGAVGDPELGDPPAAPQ
Procedure: The manner in which IC50 was determined is described in “Efficacy of Preferred Inhibitors: VI. Enzymatic assay for types 1, 2, and 3 17β-HSD and types 1 and 3 3α-HSD”. […] numbers of IC50 are desirable. Blank means that a determination was not done. The % of inhibition at the concentration of 3.10^−6M determined in preliminary screening test is reported in square braquets.
Enzyme sources. 293 cells transiently transfected with expression vectors encoding types 1, 2 and 3 17β-HSD (Luu-The et al., J. Steroid Biochem. Molec. Biol., 55: 581-587, 1995), types 1 and 2 5α-reductase (Luu-The et al., J. Invest. Dermatol., 102: 221-226, 1994) and types 1 and 3 3α-HSD (Dufort et al. Biochem. Biophys. Res. Commun. 228: 474-479, 1996), using the calcium phosphate procedure (Kingston et al., In: Current Protocols in Molecular Biology. Edited by E. M. Ausbel, R. Brent, R. E. Kingston, D. D. Moore, J. G. Seidman, J. A. Smith, K. Struhl. John Wiley & Sons, New York, pp. 9.1.1-9.1.9, 1991; Luu-The et al., J. Invest. Dermatol., 102: 221-226, 1994). For assays using cell subfractions, cells were sonicated in 50 mM sodium phosphate buffer (pH 7.4), containing 20% glycerol and 1 mM EDTA and centrifuged at 10 000×g for 30 min before centrifugation for 100 000×g for 1 h to separate the mitochondrial and microsomal fractions, respectively. The cytosol fractions (100 000×g supernatant) was used to determine type 1 activity while the microsomal fraction (pellet at 100 000×g) was used for measurement of types 2 and 3 17β-HSD activities.
Incubation. The enzymatic reaction was carried out at 37° C. in 1 ml of 50 mM sodium phosphate buffer, pH 7.4, containing 20% glycerol, 1 mM EDTA, and 2 mM cofactors (NADPH or AND^+) for 1 h in the presence of 0.1 μM ^14C-labeled substrate: estrone and 4-dione for types 1 and […] 17β-HSD, respectively, testosterone for type 2 17β-HSD as well as types 1 and 2 5α-reductases, DHT for types 1 and 3 3α-HSD activities, and the indicated concentration of inhibitor.
Extraction of metabolites, migration on TLC and quantification were as described above for the assay of type 5 17β-HSD.

[2] = target: T2, human type 2 17β-hydroxysteroid dehydrogenase (Homo sapiens, UniProt P37059); assay: Enzymatic assay for type 2 17β-HSD; assay type: biochemical; conditions: for inhibition: read-out: Inhibition Type 2 17β-HSD Activity [% Inh. at 3 · 10^−8M]; for IC50: read-out: Inhibition Type 2 17β-HSD Activity IC50
T2 construct: expressed in transfected cells; host or cells: 293 cells, transient transfection; microsomal fraction (100 000×g pellet)
T2 sequence (P37059 1-387): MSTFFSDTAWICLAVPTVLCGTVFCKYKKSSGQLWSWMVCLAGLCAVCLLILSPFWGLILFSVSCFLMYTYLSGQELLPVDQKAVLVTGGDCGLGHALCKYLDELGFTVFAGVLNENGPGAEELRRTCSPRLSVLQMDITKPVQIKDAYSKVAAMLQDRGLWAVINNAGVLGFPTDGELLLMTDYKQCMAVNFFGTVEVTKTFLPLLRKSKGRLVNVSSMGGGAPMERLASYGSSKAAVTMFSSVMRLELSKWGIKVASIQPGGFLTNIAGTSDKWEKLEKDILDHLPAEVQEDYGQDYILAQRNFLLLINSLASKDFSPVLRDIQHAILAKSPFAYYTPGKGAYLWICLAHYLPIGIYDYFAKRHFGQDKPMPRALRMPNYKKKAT
How it was run: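 Enzymes from transiently transfected 293 cells (cytosol for type 1, microsomes for types 2 and 3 17β-HSD) were incubated 1 h at 37° C in pH 7.4 phosphate/20% glycerol with 2 mM NADPH or NAD+ and 0.1 μM 14C-substrate (estrone, 4-dione, or DHT for 3α-HSD); metabolites quantified by TLC; preliminary % inhibition at 3.10^−6M.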

[3] = system: ZR-75-1 cells; assay: Estrogenic activity: stimulation of proliferation of ZR-75-1 cells; assay type: cell-based, human; conditions: for ZR-75-1 Activity, Basal E^−6 / ZR-75-1 Activity, Basal E^−8: Table 4′
Procedure: […] The manner in which the stimulation is determined is described in “Other Tests; C-Estrogenic/Antiestrogenic activity” Lower numbers are desirable. ND means that a determination was not done.
(§1) Estrogenic/antiestrogenic activity of some preferred compounds has been measured using the […] human breast cancer cell line as described in more detail below.
(§2) All media and medium supplments were purchased from Sigma. Cells were subcultured weekly by treatment with a pancreatic solution containing EDTA (0.2 g/L). The cell cultures used for the experiments herein describied were between passages 89 and 94.
(§3) Cells in their logarithmic growth phase were harvested, briefly centrifuged, and resuspended in RPMI 1640. Cells were then plated in triplicate in LIMBRO 24-well plastic culture plates (2 cm^2/well). Since plating density influences the effect of hormones on ZR-75-1 cell growth, cells were plated at a density of 1×10^4 cells/well. […] Control cultures received the ethanol vehicle only. Cells were then allowed to grow at 37° C. for 10 days with medium changes (of identical composition) every 2 days.
(§4) After E2 and/or antiestrogen treatment, cells were harvested by addition of 0.5 ml of a pancreatin solution (Sigma) for 5-10 min at 37° C. before addition of 0.5 mnl of RPMI 1640 containing 5% dextran coated […] bovine serum in order to block enzymatic action. Cell number (0.10 ml aliquot) was determined by measurement of DNA content as previously described (Simard et al., Endocrinology 126: 3223-3231,1990).

[4] = system: ZR-75-1 cells; assay: Antiestrogenic activity: inhibition of E2-induced proliferation of ZR-75-1 cells; assay type: cell-based, human; parameters: ZR-75-1 Activity, E2 / ZR-75-1 Activity E2 E^−6: unit not given here; conditions: for ZR-75-1 Activity, E2 3E^−8: Table 4′, E2-induced proliferation
Procedure: The manner in which the inhibition is determined is described in “Other Tests; C-Estrogenic/Antiestrogenic Activity”. Lower numbers are desirable. ND means that a determination was not done.
as §1, §2, §3, §4

[5] = Table 4′, bracketed values, 3 · 10^−8M

SMILES	ZR-75-1 Activity, Basal E^−6 [3]	ZR-75-1 Activity, Basal E^−8 [3]	ZR-75-1 Activity, E2 3E^−8 [4]	inhibition [2, 5]	also measured
CC1=C[C@@H]2[C@H](CC[C@]3(C)C(=O)C4(CCCCC4)C[C@@H]23)[C@@]2(C)CCC(=O)C=C12 [EM-925]					Inhibition Type 1 17B-HSD Activity [% Inh. at 3 · 10^−6 M] [1]: [13] %
CCCC(=O)O[C@]1(C)C(=O)CCC2C3C=C(C)C4=CC(=O)CC[C@]4(C)C3CC[C@@]21C (some centres unmarked) [EM-1078]					inhibition at 3 µM [1]: 15%
CC1CCC2(CCC3C4CCc5cc(O)c([N+](=O)[O-])cc5C4CCC32C)OC1=O [EM-1126, 2-Nitro-1,3,5(10)-estratrien-3-ol-17(R)-spiro-2′-(5′-methyl-6′-oxo)tetrahydropyran]	−89%	0%	0%		Inhibition Type 2 17β-HSD Activity [% Inh. at 3 · 10^−8M] [2, 5]: [59] %
CC1CCC2(CCC3C4CCc5cc(O)c([N+](=O)[O-])cc5C4CCC32C)OC1=O [EM-1131, 2-Nitro-1,3,5(10)-estratrien-3-ol-17(R)-spiro-2′-(5′-methyl-6′-oxo)tetrahydropyran]	15%	7%	0%	70%	
CC1(C)CC[C@@]2(CCC3C4CCc5cc(F)ccc5C4CC[C@@]32C)OC1=O (some centres unmarked) [EM-1157-CS]					IC50 [1]: > 10 µM; IC50 ([2]; Table 4′): > 10 µM
CCC[C@]1(F)CC2C3C=CC4=CC(=O)CC[C@]4(C)C3CC[C@]2(C)C1=O (some centres unmarked) [EM-1183]					inhibition at 3 µM [1]: 34%
CC(=O)[C@@]1(OC(=O)CCCCF)CCC2C3C=C(C)C4=CC(=O)CC[C@]4(C)C3CC[C@@]21C (some centres unmarked) [EM-1195-CS]					Inhibition Type 2 17β-HSD Activity [% Inh.] ([2]; at 3.10^-8M): [40] %; ZR-75-1 Activity, Basal ([3]; E^−6, in %): 18; ZR-75-1 Activity, Basal ([3]; E^−8, in %): −11; ZR-75-1 Activity, E2 ([4]; E2): −40; ZR-75-1 Activity, E2 ([4]; E2, E^−8): −38
C[C@]12CCC(=O)C=C1C=C[C@@H]1[C@@H]2CC[C@]2(C)C(=O)C3(CC4CC4C3)C[C@@H]12 (some centres unmarked) [EM-1299, 4,6-Androstadien-3,17-dione-16-spirobicyclo[3′.1′.0′]-hexane]					Inhibition Type 1 17B-HSD Activity [% Inh. at 3 · 10^−6 M] [1]: [49] %
CCS(=O)(=O)Oc1ccc2c(c1)CCC1C2CCC2(C)C1CCC21CCC(C)(C)C(=O)O1 (centres unmarked) [EM-1364-CS]	+36%	0%	−12%	73%	
COCCOc1ccc2c(c1)CCC1C2CCC2(C)C1CCC21CCC(C)(C)C(=O)O1 [EM-1368-CS, 3-Methoxyethoxy-1,3,5(10)-estratrien-17(R)-spiro-2′-(5′,5′-dimethyl-6′-oxo)-tetrahydropyran]	+15%	0%	0%	73%	
CCOc1ccc2c(c1)CCC1C2CC[C@@]2(C)C1CC[C@@]21CCC(C)(C)C(=O)O1 (stereo partly drawn) [EM-1369, 3-Ethoxy-1,3,5(10)-estratrien-17(R)-spiro-2′-(5′,5′-dimethyl-6′-oxo)-tetrahydropyran]	+84%	0%	+18%	62%	
COc1ccc2c(c1)CCC1C2CCC2(C)C1CCC21CCC(C)(C)C(=O)O1 (centres unmarked) [EM-1370]	+24%	0%	0%	33%	
COCCOc1cc2c(cc1Cl)C1CCC3(C)C(CCC34CCC(C)(C)C(=O)O4)C1CC2 (centres unmarked) [EM-1371-CS]	+137%	0%	0%		IC50 ([2]; Table 4′): > 10 µM
COc1ccc2c(c1)C(=O)CC1C3CCC4(CCC(C)(C)C(=O)O4)C3(C)CCC21O (centres unmarked) [EM-1386]	−12%	0%	0%		IC50 ([2]; Table 4′): > 10 µM
COc1ccc2c(c1)C(=O)CC1C2CC[C@@]2(C)C1CC[C@@]21CCC(C)(C)C(=O)O1 (some centres unmarked) [EM-1394]					IC50 [1]: > 10 µM; IC50 ([2]; Table 4′): > 10 µM
CC1(C)CC[C@@]2(CCC3C4CCc5cc(C(=O)O)ccc5C4CC[C@@]32C)OC1=O (stereo partly drawn) [EM-1401, 3-Carboxy-1,3,5(10)-estratrien-17(R)-spiro-2′-(5′,5′-dimethyl-6′-oxo)tetrahydropyran]				76%	IC50 [1]: > 10 µM
CC1CC(=O)OC2(CCC3C4CCc5cc(O)ccc5C4CCC32C)C1 [PB-132-142, 3-Hydroxy-1,3,5(10)-estratrien-17(R)-spiro-2′-(4′-methyl-6′-oxo)tetrahydropyran]	91%	38%	0%	69%	
COC(=O)C1CCC2(CCC3C4CCc5cc(O)ccc5C4CCC32C)OC1=O [PB-132-146, 3-Hydroxy-1,3,5(10)-estratrien-17(R)-2′-(5′-methoxycarbonyl-6′-oxo)tetrahydropyran]	91%	0%	0%	75%	
C=CCC1CCC2(CCC3C4CCc5cc(O)ccc5C4CCC32C)OC1=O [PB-132-152, 3-Hydroxy-1,3,5(10)-estratrien-17(R)-2′-(5′-allyl-6′-oxo)tetrahydropyran]	90%	39%	−11%	50%	
